Source: ChEMBL document CHEMBL3868595, “Plazomicin is effective in a non-human primate pneumonic plague model” (Bioorg Med Chem, 2016)

Legend:
[1] = Toxicity in African green monkey 7972 model infected with Yersinia pestis Colorado 92 assessed as total white blood cell count at 25 mg/kg, iv administered within 6 hrs post onset of sustained fever as 30 mins infusion for 10 days (reference value: 6.9 10^3/microL); assay type: organism-based; settings: chlorocebus aethiops, in vivo
Yersinia pestis [2] = experiment: Antibacterial activity against Yersinia pestis Colorado 92 infected in African green monkey B6889 model assessed as bacterial burden in heart at 6.25 mg/kg, iv administered within 6 hrs post onset of sustained fever as 30 mins infusion for 5 days (reference value: 2.6 10^7CFU/g); assay type: functional, CO92
[3] = Toxicity in African green monkey 7337 model infected with Yersinia pestis Colorado 92 assessed as total white blood cell count at 25 mg/kg, iv administered within 6 hrs post onset of sustained fever as 30 mins infusion for 10 days (reference value: 7.5 10^3/microL); assay type: organism-based; settings: chlorocebus aethiops, in vivo
Yersinia pestis [4] = experiment: (§1) Antibacterial activity against Yersinia pestis Colorado 92 infected in African green monkey B6861 model assessed as bacterial burden in spleen at 6.25 mg/kg, iv administered within 6 hrs post onset of sustained fever as 30 mins infusion for 5 days (reference value: 1.6 10^9CFU/g); assay type: functional, CO92
African green monkey [5] = experiment: Toxicity in African green monkey 7337 model infected with Yersinia pestis Colorado 92 assessed as serum alanine aminotransferase level at 25 mg/kg, iv administered within 6 hrs post onset of sustained fever as 30 mins infusion for 10 days (reference value: 55 IU/L); assay type: organism-based; settings: chlorocebus sabaeus, in vivo
[6] = Toxicity in African green monkey B6428 model infected with Yersinia pestis Colorado 92 assessed as total white blood cell count at 25 mg/kg, iv administered within 6 hrs post onset of sustained fever as 30 mins infusion for 10 days (reference value: 6.2 10^3/microL); assay type: organism-based; settings: chlorocebus aethiops, in vivo
Yersinia pestis [7] = experiment: Antibacterial activity against Yersinia pestis Colorado 92 infected in African green monkey B6127 model assessed as bacterial burden in blood at 25 mg/kg, iv administered within 6 hrs post onset of sustained fever as 30 mins infusion for 10 days (reference value: 1.2 10^7CFU/ml); assay type: functional, organism-based; settings: CO92
[8] = Clearance in African green monkey blood at 35 mg/kg administered as iv infusion twice daily for 7 consecutive days measured on day 1 by LC-MS/MS analysis; assay type: ADME, organism-based; settings: chlorocebus aethiops
Yersinia pestis [9] = experiment: as §1, with “C2083” for “B6861”, “tracheobronchial lymph nodes” for “spleen”, “12.5” for “6.25”, “7.7” for “1.6”; assay type: functional, CO92, Lymph node
African green monkey [10] = experiment: Toxicity in African green monkey 7929 model infected with Yersinia pestis Colorado 92 assessed as serum alanine aminotransferase level at 25 mg/kg, iv administered within 6 hrs post onset of sustained fever as 30 mins infusion for 10 days (reference value: 63 IU/L); assay type: organism-based; settings: chlorocebus sabaeus, in vivo
Yersinia pestis [11] = experiment: Antibacterial activity against Yersinia pestis Colorado 92 infected in African green monkey C2149 model assessed as bacterial burden in brain at 6.25 mg/kg, iv administered within 6 hrs post onset of sustained fever as 30 mins infusion for 5 days (reference value: 1.9 10^6CFU/g); assay type: functional, CO92
[12] = Clearance in African green monkey blood at 35 mg/kg administered as iv infusion twice daily for 7 consecutive days measured on day 7 by LC-MS/MS analysis; assay type: ADME, organism-based; settings: chlorocebus aethiops
African green monkey [13] = experiment: Toxicity in African green monkey B6408 model infected with Yersinia pestis Colorado 92 assessed as serum alanine aminotransferase level at 25 mg/kg, iv administered within 6 hrs post onset of sustained fever as 30 mins infusion for 10 days (reference value: 109 IU/L); assay type: organism-based; settings: chlorocebus sabaeus, in vivo
Yersinia pestis [14] = experiment: Antibacterial activity against Yersinia pestis Colorado 92 infected in African green monkey B6106 model assessed as bacterial burden in kidney at 25 mg/kg, iv administered within 6 hrs post onset of sustained fever as 30 mins infusion for 5 days (reference value: 7.1 10^7CFU/g); assay type: functional, CO92
Yersinia pestis [15] = experiment: Antibacterial activity against Yersinia pestis Colorado 92 infected in African green monkey B6436 model assessed as bacterial burden in tracheobronchial lymph nodes at 25 mg/kg, iv administered within 6 hrs post onset of sustained fever as 30 mins infusion for 5 days (reference value: 7.7 10^9CFU/g); assay type: functional, CO92, Lymph node
African green monkey [16] = experiment: Toxicity in African green monkey B6127 model infected with Yersinia pestis Colorado 92 assessed as elevation of blood urea nitrogen at 25 mg/kg, iv administered within 6 hrs post onset of sustained fever as 30 mins infusion for 10 days; assay type: organism-based; settings: chlorocebus sabaeus, in vivo
African green monkey [17] = experiment: Toxicity in African green monkey 7972 model infected with Yersinia pestis Colorado 92 assessed as serum lactate dehydrogenase level at 25 mg/kg, iv administered within 6 hrs post onset of sustained fever as 30 mins infusion for 10 days (reference value: 381 IU/L); assay type: organism-based; settings: chlorocebus sabaeus, in vivo
Yersinia pestis [18] = experiment: Antibacterial activity against Yersinia pestis Colorado 92 infected in African green monkey assessed as survival of monkey at 25 mg/kg, iv administered within 6 hrs post onset of sustained fever as 30 mins infusion for 5 days; assay type: functional; settings: CO92, iv
Yersinia pestis [19] = experiment: Antibacterial activity against Yersinia pestis Colorado 92 infected in African green monkey B6873 model assessed as bacterial burden in spleen at 12.5 mg/kg, iv administered within 6 hrs post onset of sustained fever as 30 mins infusion for 5 days (reference value: 1.6 10^9CFU/g); assay type: functional, organism-based; settings: CO92
Yersinia pestis [20] = experiment: Antibacterial activity against Yersinia pestis Colorado 92 infected in African green monkey B6106 model assessed as bacterial burden in lung at 25 mg/kg, iv administered within 6 hrs post onset of sustained fever as 30 mins infusion for 5 days (reference value: 7.7 10^8CFU/g); assay type: functional, CO92
African green monkey [21] = experiment: Toxicity in African green monkey 7337 model infected with Yersinia pestis Colorado 92 assessed as blood urea nitrogen level at 25 mg/kg, iv administered within 6 hrs post onset of sustained fever as 30 mins infusion for 10 days (reference value: 15 mg/dl); assay type: organism-based; settings: chlorocebus sabaeus, in vivo
[22] = AUC (0 to 24 hrs) in African green monkey blood at 25 mg/kg administered as iv infusion twice daily for 7 consecutive days measured on day 1 by LC-MS/MS analysis; assay type: ADME, organism-based; design: dose 25 mg/kg, time < 24 hr, route intravenous; settings: chlorocebus aethiops
Yersinia pestis [23] = experiment: Antibacterial activity against Yersinia pestis Colorado 92 infected in African green monkey B6988 model assessed as bacterial burden in kidney at 6.25 mg/kg, iv administered within 6 hrs post onset of sustained fever as 30 mins infusion for 5 days (reference value: 7.1 10^7CFU/g); assay type: functional, CO92
Yersinia pestis [24] = experiment: Antibacterial activity against Yersinia pestis Colorado 92 infected in African green monkey B6872 model assessed as bacterial burden in liver at 25 mg/kg, iv administered within 6 hrs post onset of sustained fever as 30 mins infusion for 5 days (reference value: 5.2 10^8CFU/g); assay type: functional, organism-based; settings: CO92
Yersinia pestis [25] = experiment: Antibacterial activity against Yersinia pestis Colorado 92 infected in African green monkey B6783 model assessed as bacterial burden in lung at 12.5 mg/kg, iv administered within 6 hrs post onset of sustained fever as 30 mins infusion for 5 days (reference value: 7.7 10^8CFU/g); assay type: functional, CO92
[26] = Cmax in African green monkey blood at 35 mg/kg administered as iv infusion twice daily for 7 consecutive days measured on day 1 by LC-MS/MS analysis; assay type: ADME, organism-based; design: dose 35 mg/kg, route intravenous; settings: chlorocebus aethiops

## CN[C@@H]1[C@@H](O)[C@@H](O[C@@H]2[C@@H](O)[C@H](O[C@H]3OC(CNCCO)=CC[C@H]3N)[C@@H](N)C[C@H]2NC(=O)[C@@H](O)CCN)OC[C@]1(C)O [PLAZOMICIN]
[1]
  Activity: 7.6 ×10³ /uL
Yersinia pestis [2]
  Activity: 1 ×10⁶ CFU/g
[3]
  Activity: 5 ×10³ /uL
Yersinia pestis [4]
  Activity: 95 CFU/g
African green monkey [5]
  Activity: 44 IU/L
[6]
  Activity: 6 ×10³ /uL
Yersinia pestis [7]
  Activity: Below limit of detection
[8]
  clearance: 1.67 mL/min/kg
Yersinia pestis [9]
  Activity: 8 ×10⁹ CFU/g
African green monkey [10]
  Activity: 41 IU/L
Yersinia pestis [11]
  Activity: 46 CFU/g
[12]
  clearance: 1.67 mL/min/kg
African green monkey [13]
  Activity: 94 IU/L
Yersinia pestis [14]
  Activity: 17 CFU/g
Yersinia pestis [15]
  Activity: 30 CFU/g
African green monkey [16]
  Activity: Toxic
African green monkey [17]
  Activity: 398 IU/L
Yersinia pestis [18]
  survival at 25 mg/kg: 69%
Yersinia pestis [19]
  Activity: Below limit of detection
Yersinia pestis [20]
  Activity: 19 CFU/g
African green monkey [21]
  Activity: 18 mg/dL
[22]
  AUC(0-t) at 24 h: 185 µg·h/mL
Yersinia pestis [23]
  Activity: 23 CFU/g
Yersinia pestis [24]
  Activity: Below limit of detection
Yersinia pestis [25]
  Activity: 2.8 ×10⁹ CFU/g
[26]
  Cmax: 176 µg/mL
